Two compounds from publication PMC5318439, “The Novel Toll-Like Receptor 2 Agonist SUP3 Enhances Antigen Presentation and T Cell Activation by Dendritic Cells” (Frontiers in Immunology, 2017) can be followed below.

Where a SMILES comes first, the peptide text is derived from it. The star is where a group is joined. X1 = CCCCCCCCCCCCCCNC(=O)OC[C@H](C*)OC(=O)NCCCCCCCCCCCCCC; Palmitoyl = CCCCCCCCCCCCCCCC(=O)*

In one data set the test system is RAW 264.7 cells. Kind of data set: TNFα production by WT RAW 264.7 cells. Particulars: 500 nM, 8 h. The class given is cell-based. As for the experimental part:
Splenic DCs (5 × 10^5 cells/mL) were stimulated by Pam3 (200 nM), SUP3 (200 nM), or CpG ODN 1668 (20 nM; Adipogen IAX-200-001) in the GM-CSF (20 ng/mL) supplemented medium for indicated periods. Cell culture supernatants were harvested at indicated time points and stored at −40°C. […] For in vivo administration, Pam3 (2 nmol per mouse), SUP3 (2 nmol per mouse), or LPS (1 µg per mouse) were intravenously (i.v.) injected via tail veins. Serum was obtained through tail vein bleeding and centrifuged after coagulation and stored at −40°C. Cytokines (IL-6, eBioscience 88-7064; TNFα, eBioscience 88-7324; IL-12p40, BioLegend 431604), chemokine (MIP1α, R&D Systems DY450-05), and total IgM (eBioscience, 88-50470) were quantified by ELISA kits following the instructions of manufacturers.
Figure 1 Specificity and activity of novel TLR2 agonist SUP3. (A) Schematic chemical structure of SUP3. (B) Surface expression of TLR2 in wild-type (WT) and Tlr2^−/− RAW 264.7 cell lines. Gray shadows represented isotype control and black lines represented TLR2. (C) TNFα production by RAW 264.7 cells upon stimulation with lipopolysaccharide (LPS) (1 µg/mL), Pam3CSK4 (Pam3 hereafter) (500 nM), or SUP3 (500 nM) for 8 h. […] The production of cytokines IL-6 and TNFα in culture supernatant was determined by ELISA. *p < 0.05, ****p < 0.0001, “n.s.” indicates statistically non-significant.

A further data set has as its system CD8^+ cDCs. Kind of data set: Cytokine production by purified CD8+ cDCs (ELISA). The class given is cell-based, mice. Particulars: 200 nM, GM-CSF 20 ng/mL, 24 and 48 h. As for the experimental part: (§1) Splenic DCs (5 × 10^5 cells/mL) were stimulated by Pam3 (200 nM), SUP3 (200 nM), or CpG ODN 1668 (20 nM; Adipogen IAX-200-001) in the GM-CSF (20 ng/mL) supplemented medium for indicated periods. Cell culture supernatants were harvested at indicated time points and stored at −40°C. RAW 264.7 cells and GMDCs were stimulated by lipopolysaccharide (LPS) (20 ng/mL; Adipogen IAX-100-013), Pam3, or SUP3 (both at 200 nM) for 24 h. For in vivo administration, Pam3 (2 nmol per mouse), SUP3 (2 nmol per mouse), or LPS (1 µg per mouse) were intravenously (i.v.) injected via tail veins. Serum was obtained through tail vein bleeding and centrifuged after coagulation and stored at −40°C. Cytokines (IL-6, eBioscience 88-7064; TNFα, eBioscience 88-7324; IL-12p40, BioLegend 431604), chemokine (MIP1α, R&D Systems DY450-05), and total IgM (eBioscience, 88-50470) were quantified by ELISA kits following the instructions of manufacturers.
Figure 4 SUP3 stimulated maturation of CD8^+ conventional dendritic cells (cDCs). […] The surface expression of costimulatory and major histocompatibility complex (MHC) molecules were then analyzed by flow cytometry. […] Splenic CD8^+ cDCs were enriched, and surface expression of CD40 and CD86 was analyzed by flow cytometry. […] Supernatants were harvested 24 and 48 h post-stimulation, and cytokines were measured by ELISA. […]

The nature of data set [1]: Serum inflammatory cytokines after i.v. administration. It is filed as in vivo, mice. Particulars: 2 nmol per mouse i.v., 1 h, ELISA. As for the experimental part:
as §1
Figure 2 SUP3 induced more vigorous cytotoxic T lymphocytes (CTLs) responses than Pam3CSK4 without excessive production of inflammatory cytokines in vivo. […] The percentages of pentamer positive cells (CD19^− CD3^+ CD8^+ SIINFEKL/H-2Kb-Pentamer^+) in spleens, i.e., the OVA-specific CD8^+ T cells, were determined by flow cytometry (A) and the statistic calculation is presented in (B). […] “n.d.” indicates “not detected.” *p < 0.05, **p < 0.01. […]
A general note: In an ELISA, binding on a coated surface is turned into a signal by an enzyme label.

On to `CCCCCCCCCCCCCCCC(=O)N[C@@H](CSC[C@@H](COC(=O)NCCCCCCCCCCCCCC)OC(=O)NCCCCCCCCCCCCCC)C(=O)NCC(=O)N[C@@H](CCCCN)C(=O)N[C@@H](CCCCN)C(=O)N[C@@H](CCCCN)C(=O)O` [SUP3, (2S,5S,8S,14R,18R)-2,5,8-tris(4-aminobutyl)-4,7,10,13,21-pentaoxo-14-palmitamido-18-((tetradecylcarbamoyl)oxy)-20-oxa-16-thia-3,6,9,12,22-pentaazahexatriacontan-1-oic acid] (Palmitoyl-C(X1)GKKK-OH), for which, in the data set on RAW 264.7 cells, the “TNFα production by WT RAW cells” value is listed as “large amount of TNFα production”. Further, in the data set with CD8^+ cDCs, the “IL-6 and TNFα production by CD8+ cDCs” value is given as “only low levels”. Further, the “serum IL-6, TNFα, IL-12p40 and MIP1α levels” value in data set [1] is listed as “maintained at low levels”.

Regarding Pam3CSK4 [reference compound], the “TNFα production by WT RAW cells” value in the data set on RAW 264.7 cells is reported as “large amount of TNFα production”. Besides, in the data set with CD8^+ cDCs, the “IL-6 and TNFα production by CD8+ cDCs” value was “only low levels”. The “serum IL-6, TNFα, IL-12p40 and MIP1α levels” value in data set [1] was “maintained at low levels”.
